According to patent US20220170930A1, “METHOD FOR SCREENING COMPOUND FOR TREATING OR PREVENTING POLYQ-RELATED NEURODEGENERATIVE DISEASES” (FUDAN UNIVERSITY, priority 2019, published 2022):

How the values were obtained:
His-ATXN1-Q92 = target: T1, His-ATXN1-Q92 (Homo sapiens, UniProt P54253, INS208QQQQQQQQQQQQQQQQQQQQQQQQQQQQQQQQQQQQQQQQQQQQQQQQQQQQQQQQQQQQQQQQQQQQQQQQQQQQQQQQ); assay: OI-RD affinity screening with His-ATXN1-Q92; type: binding; conditions: OI-RD difference images
T1 construct: made in house; host or cells: HEK293T cells (ATCC, CRL-3216)
T1 sequence (P54253 with tags, fused parts or gaps with the stated changes): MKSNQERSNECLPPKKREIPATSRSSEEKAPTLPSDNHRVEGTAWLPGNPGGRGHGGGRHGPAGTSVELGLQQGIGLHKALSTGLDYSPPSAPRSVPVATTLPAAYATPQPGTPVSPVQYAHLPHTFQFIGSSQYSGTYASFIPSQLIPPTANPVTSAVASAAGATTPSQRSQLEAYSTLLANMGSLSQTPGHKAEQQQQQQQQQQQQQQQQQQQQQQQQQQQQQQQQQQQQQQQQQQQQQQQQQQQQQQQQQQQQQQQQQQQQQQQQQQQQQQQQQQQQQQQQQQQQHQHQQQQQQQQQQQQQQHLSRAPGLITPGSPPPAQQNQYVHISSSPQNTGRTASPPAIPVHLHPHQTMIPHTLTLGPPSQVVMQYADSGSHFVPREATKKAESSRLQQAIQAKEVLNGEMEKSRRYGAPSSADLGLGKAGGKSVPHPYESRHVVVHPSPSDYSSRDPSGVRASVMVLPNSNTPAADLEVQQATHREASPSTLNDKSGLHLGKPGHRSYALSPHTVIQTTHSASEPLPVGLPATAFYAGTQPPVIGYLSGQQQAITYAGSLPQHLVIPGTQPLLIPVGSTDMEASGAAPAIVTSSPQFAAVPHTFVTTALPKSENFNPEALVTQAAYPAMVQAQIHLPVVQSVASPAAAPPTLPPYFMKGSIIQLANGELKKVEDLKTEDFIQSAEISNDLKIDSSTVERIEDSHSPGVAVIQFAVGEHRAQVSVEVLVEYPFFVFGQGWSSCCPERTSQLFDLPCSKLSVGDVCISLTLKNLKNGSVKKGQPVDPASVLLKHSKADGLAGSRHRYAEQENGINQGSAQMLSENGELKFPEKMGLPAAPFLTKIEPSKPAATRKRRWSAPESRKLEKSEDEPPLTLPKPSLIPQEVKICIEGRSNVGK
Protocol: (1) PolyQ-ATXN1 cDNA (where polyQ is Q92) was synthesized de novo and subcloned into pcDNA vector. It transfected into HEK293T cells (ATCC, CRL-3216) to obtain cells expressing His-ATXN1-Q92 (SEQ ID NO: 3 with a His tag at the N-terminal).
(2) The His-ATXN1-Q92 expressed in (1) was purified to obtain ATXN1 with abnormally expanded polyQ.
To identify compound(s) that can bind to ATXN1 with abnormally expanded polyQ, screening was conducted using a method similar to step (1) of 1.1, except for that the target protein HTTexon1-Q72-MBP in step (1) of 1.1 was replaced with His-ATXN1-Q92.

mHTT [1] = assay: Intracerebroventricular injection, mHTT and wtHTT in cortices of HD mice; type: in vivo, mouse
Protocol: Experimental animals: Hdh^Q140/Q7 mice (3 months old), 4 in each group.
Each test includes three repetitions for each sample, and the mean values was calculated (FIG. 16).

Q46-GFP = assay: OI-RD affinity reaction parameters with Q46-GFP; type: binding
Description: (§1) (1) PolyQ-GFP cDNA sequence (expressing Met-polyQ-GFP, wherein polyQ was Q72 or Q25) was synthesized de novo and subcloned into pcDNA vector. […] And the same method was used to obtain cells expressing Q53-GFP, cells expressing Q46-GFP, and cells expressing Q38-GFP.

[2] = target: T2, wild-type ATXN3 protein (ATXN3-Q27) (Homo sapiens, UniProt P54252, G306R/INS305QQQQQQQQQQQQQQQQQ/V212M); assay: Western-blot wild-type ATXN3 level in fibroblasts; type: cell-based; conditions: 100 nM (compound 4: 50 nM), 2 days
T2 construct: endogenous in cells; host or cells: wild-type fibroblasts (Q27) and/or the normal allele in SCA3 patient fibroblasts
Protocol: (§2) Then the levels of mutant ATXN3 protein (ATXN3-Q74, SEQ ID NO: 2) and wild-type ATXN3 protein (ATXN3-Q27, SEQ ID NO: 7) were determined by Western-blots (FIG. 26). […] Therefore, the compound of the present invention can be used to treat SCA3.

mHTT [3] = target: T3, mHTT (Homo sapiens, UniProt P42858, INS38QQQQQQQQQQQQQQQQQQQQQQQQQQ); assay: HTRF mHTT level in HD patient iPSC-derived neurons; type: cell-based; conditions: iPSC-derived neurons (Q47)
T3 construct: endogenous in cells; host or cells: HD patient iPSC-derived neurons (Q47)
T3 sequence (P42858 other isoform, or with tags, fused parts or gaps with the stated changes): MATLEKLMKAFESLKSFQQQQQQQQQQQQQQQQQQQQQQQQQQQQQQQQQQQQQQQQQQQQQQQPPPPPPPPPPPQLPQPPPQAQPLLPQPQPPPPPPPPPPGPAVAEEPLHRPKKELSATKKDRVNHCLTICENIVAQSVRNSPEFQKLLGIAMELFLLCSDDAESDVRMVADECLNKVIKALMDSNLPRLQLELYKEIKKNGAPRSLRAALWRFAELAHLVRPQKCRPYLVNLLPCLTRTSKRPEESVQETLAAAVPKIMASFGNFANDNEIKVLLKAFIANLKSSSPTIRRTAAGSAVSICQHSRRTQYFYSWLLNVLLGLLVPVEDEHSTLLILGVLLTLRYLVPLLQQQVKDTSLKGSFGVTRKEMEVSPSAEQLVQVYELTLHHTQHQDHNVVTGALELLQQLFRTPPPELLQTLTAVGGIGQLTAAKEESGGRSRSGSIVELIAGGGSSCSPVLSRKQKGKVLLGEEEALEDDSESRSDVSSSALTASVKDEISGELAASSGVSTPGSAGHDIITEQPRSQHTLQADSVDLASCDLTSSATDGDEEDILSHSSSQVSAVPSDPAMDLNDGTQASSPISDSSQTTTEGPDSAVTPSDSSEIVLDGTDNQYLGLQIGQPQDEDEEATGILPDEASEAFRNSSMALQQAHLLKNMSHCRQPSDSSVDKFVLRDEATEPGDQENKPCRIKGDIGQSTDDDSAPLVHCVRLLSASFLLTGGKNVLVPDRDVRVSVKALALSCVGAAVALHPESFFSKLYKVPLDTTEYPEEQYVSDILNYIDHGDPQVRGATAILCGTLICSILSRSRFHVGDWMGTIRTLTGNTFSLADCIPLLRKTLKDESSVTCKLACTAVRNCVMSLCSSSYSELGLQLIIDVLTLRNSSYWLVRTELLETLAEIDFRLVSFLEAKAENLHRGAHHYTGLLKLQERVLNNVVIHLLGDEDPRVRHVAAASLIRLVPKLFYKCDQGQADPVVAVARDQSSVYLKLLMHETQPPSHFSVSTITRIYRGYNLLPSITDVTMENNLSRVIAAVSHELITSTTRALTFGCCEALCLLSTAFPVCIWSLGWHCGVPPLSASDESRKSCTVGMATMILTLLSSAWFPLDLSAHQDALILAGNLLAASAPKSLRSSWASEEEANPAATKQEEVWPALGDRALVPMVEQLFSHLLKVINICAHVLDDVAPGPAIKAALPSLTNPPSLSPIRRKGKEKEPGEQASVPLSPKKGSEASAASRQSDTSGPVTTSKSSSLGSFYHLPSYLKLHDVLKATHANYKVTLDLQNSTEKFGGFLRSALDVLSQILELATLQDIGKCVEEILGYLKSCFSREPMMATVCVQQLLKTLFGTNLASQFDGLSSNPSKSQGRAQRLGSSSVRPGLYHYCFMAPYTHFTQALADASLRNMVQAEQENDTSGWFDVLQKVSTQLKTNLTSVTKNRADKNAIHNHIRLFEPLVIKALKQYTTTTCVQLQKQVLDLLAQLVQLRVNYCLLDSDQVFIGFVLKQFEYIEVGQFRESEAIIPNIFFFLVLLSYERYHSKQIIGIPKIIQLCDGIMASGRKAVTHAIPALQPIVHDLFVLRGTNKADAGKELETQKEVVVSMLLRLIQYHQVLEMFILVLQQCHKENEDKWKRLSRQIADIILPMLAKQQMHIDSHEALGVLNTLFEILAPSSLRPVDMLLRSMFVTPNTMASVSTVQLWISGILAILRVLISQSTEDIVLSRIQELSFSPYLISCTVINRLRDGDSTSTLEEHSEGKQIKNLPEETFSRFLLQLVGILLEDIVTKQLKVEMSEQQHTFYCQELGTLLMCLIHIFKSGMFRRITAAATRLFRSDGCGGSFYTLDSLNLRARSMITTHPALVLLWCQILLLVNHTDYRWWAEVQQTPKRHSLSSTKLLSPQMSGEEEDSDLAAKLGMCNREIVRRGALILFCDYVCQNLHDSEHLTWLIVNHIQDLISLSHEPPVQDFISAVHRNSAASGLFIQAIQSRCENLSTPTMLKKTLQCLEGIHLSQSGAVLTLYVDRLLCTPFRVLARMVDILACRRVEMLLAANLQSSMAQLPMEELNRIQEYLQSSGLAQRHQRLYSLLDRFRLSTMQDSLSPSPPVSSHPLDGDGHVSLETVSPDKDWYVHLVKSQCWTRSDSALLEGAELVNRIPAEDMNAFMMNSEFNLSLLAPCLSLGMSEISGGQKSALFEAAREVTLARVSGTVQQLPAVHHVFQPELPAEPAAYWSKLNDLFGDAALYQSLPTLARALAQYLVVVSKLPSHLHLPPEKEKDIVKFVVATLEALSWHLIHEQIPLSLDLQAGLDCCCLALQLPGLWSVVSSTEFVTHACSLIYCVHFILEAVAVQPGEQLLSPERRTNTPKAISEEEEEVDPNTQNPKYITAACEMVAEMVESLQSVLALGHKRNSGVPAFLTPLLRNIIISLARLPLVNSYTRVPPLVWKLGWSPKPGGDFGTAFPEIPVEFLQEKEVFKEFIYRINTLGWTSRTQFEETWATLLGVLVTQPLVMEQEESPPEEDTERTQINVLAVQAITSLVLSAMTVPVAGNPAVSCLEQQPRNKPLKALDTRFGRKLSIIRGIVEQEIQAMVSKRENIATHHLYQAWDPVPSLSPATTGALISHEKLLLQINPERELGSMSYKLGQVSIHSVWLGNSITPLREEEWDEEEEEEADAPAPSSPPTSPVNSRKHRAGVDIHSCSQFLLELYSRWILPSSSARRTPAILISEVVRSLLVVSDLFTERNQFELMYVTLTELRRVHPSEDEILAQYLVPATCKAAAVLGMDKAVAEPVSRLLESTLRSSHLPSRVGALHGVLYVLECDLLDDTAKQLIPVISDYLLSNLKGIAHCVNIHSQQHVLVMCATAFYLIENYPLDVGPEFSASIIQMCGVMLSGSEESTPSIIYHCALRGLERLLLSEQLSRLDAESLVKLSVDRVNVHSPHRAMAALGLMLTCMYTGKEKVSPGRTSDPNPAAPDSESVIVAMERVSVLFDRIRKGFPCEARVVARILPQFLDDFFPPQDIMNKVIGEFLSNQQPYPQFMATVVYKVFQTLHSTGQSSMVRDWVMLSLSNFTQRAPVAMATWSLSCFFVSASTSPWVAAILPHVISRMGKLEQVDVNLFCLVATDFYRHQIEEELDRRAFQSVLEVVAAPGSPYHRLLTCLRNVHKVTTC

[4] = target: T4, mutant ATXN3 protein (ATXN3-Q74) (Homo sapiens, UniProt P54252, G306R/INS305QQQQQQQQQQQQQQQQQQQQQQQQQQQQQQQQQQQQQQQQQQQQQQQQQQQQQQQQQQQQQQQQ/V212M); assay: Western-blot mutant ATXN3 level in SCA3 patient fibroblasts; type: cell-based; conditions: 100 nM (compound 4: 50 nM), 2 days
T4 construct: endogenous in cells; host or cells: SCA3 patient fibroblasts (Q74)
T4 sequence (P54252 with tags, fused parts or gaps isoform P54252-1 with the stated changes): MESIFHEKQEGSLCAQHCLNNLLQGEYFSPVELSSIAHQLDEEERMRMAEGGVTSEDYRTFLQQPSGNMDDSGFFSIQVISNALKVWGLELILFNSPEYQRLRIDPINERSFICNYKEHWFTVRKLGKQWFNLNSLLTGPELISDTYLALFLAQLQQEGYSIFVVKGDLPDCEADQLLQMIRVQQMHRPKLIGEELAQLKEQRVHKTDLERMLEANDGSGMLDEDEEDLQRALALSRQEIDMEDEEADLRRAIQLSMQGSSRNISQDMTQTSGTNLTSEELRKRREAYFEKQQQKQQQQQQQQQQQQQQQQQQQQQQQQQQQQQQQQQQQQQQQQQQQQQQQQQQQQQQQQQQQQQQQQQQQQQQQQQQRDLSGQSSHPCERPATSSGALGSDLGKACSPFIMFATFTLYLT
Protocol: as §2

MBP-ATXN3-Q68 = MBP-ATXN3-Q68 (Homo sapiens, UniProt P54252, INS305QQQQQQQQQQQQQQQQQQQQQQQQQQQQQQQQQQQQQQQQQQQQQQQQQQQQQQQQQQ); assay: MST affinity with MBP-ATXN3-Q68
MBP-ATXN3-Q68, sequence (P54252 with tags, fused parts or gaps isoform P54252-4 with the stated changes): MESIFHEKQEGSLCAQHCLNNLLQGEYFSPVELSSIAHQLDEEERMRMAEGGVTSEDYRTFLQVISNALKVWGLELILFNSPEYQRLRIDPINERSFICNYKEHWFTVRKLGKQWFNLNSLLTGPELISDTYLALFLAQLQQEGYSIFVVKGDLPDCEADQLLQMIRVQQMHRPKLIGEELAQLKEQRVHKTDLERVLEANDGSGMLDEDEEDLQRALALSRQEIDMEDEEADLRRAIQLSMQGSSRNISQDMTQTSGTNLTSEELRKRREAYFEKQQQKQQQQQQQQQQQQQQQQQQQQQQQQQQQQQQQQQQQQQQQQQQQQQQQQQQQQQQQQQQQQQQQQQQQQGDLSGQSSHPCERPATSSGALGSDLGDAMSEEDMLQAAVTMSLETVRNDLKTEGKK
Protocol: The affinity of the compound with full-length HTT and LC3B was verified with micro thermophoresis (MST) using Monolith NT.115 instrument from NanoTemper Technologies. The reaction buffer was 20 mM HEPES, pH 7.4, 150 mM NaCl.

Q53-GFP = assay: OI-RD affinity reaction parameters with Q53-GFP; type: binding
Description: as §1

[5] = test system: polyQ-GFP (Q72-GFP, Q25-GFP); assay: polyQ-GFP level in HEK293T cells by Incucyte fluorescence counting; type: cell-based; conditions: Q72-GFP vs Q25-GFP expressing HEK293T cells, 100 nM compound 1, 100 nM compound 3 or 50 nM compound 4, 2 days
Description: (1) PolyQ-GFP cDNA sequence (expressing Met-polyQ-GFP, wherein polyQ was Q72 or Q25) was synthesized de novo and subcloned into pcDNA vector. It was transfected into HEK293T cells (ATCC, CRL-3216) through forward transfection to obtain Q72-GFP expressing cells and Q25-GFP expressing cells, respectively. And the same method was used to obtain cells expressing Q53-GFP, cells expressing Q46-GFP, and cells expressing Q38-GFP.
The Q72-GFP expressing cells and Q25-GFP expressing cells obtained in step (1) of 10.1 were used. […] Then the level of polyQ-GFP was measured by Incucyte fluorescence counting (FIG. 25).

[6] = target: T5, mutant ATXN1 protein (His-ATXN1-Q92) (Homo sapiens, UniProt P54253, INS208QQQQQQQQQQQQQQQQQQQQQQQQQQQQQQQQQQQQQQQQQQQQQQQQQQQQQQQQQQQQQQQQQQQQQQQQQQQQQQQQ); assay: HTRF mutant ATXN1 level in His-ATXN1-Q92-expressing cells; type: cell-based; conditions: 100 nM, 2 days, anti-His-Tb/MW1-D2
T5 construct: expressed in transfected cells; host or cells: HEK293T cells (ATCC, CRL-3216)
T5 sequence (P54253 with tags, fused parts or gaps with the stated changes): as the sequence (P54253 with tags, fused parts or gaps with the stated changes) above

[7] = test system: proteins with expanded polyglutamine (polyQ-GFP); assay: OI-RD affinity screening with polyQ-GFP proteins; type: binding; conditions: OI-RD difference images
Protocol: To identify compound(s) that can selectively bind to proteins containing expanded polyglutamine, screening was conducted using a method similar to 1.1, except for that the target protein HTTexon1-Q72-MBP in step (1) of 1.1 was replaced with the polyQ-GFP protein prepared in 10.1, and the target protein HTTexon1-Q25-MBP in step (2) of 1.1 was replaced with GFP.

SQSTM1/p62 = SQSTM1/p62 level in mouse cortices after ip injection; type: in vivo; conditions: HD mice
Protocol: Using a method similar to 6.2, Hdh^Q140/Q7 mice were administered with injections. A method similar to 7.1 was used to detect the effects of ip-injection of compounds on other known autophagy selective substrate proteins (SQSTM1/p62) in the cortical tissue of Hdh^Q140/Q7 mice.

HTTexon1-Q25-MBP = target: T6, HTTexon1-Q25-MBP (Homo sapiens, UniProt P42858, DUP35-38); assay: OI-RD affinity with HTTexon1-Q25; type: binding
T6 construct: made in house; host or cells: mammalian expression vector pTT5SH8Q2
T6 sequence (P42858 with tags, fused parts or gaps DUP35-38): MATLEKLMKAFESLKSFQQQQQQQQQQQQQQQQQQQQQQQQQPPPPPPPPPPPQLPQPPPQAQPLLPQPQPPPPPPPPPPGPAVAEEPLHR
Protocol: OI-RD images before and after incubation with the target protein was obtained following the method in (1).
The difference images of the above steps (1), (2), (3) (the image after incubation minus the image before incubation) was analyzed respectively.
Each compound was printed in triplicates on the microarray. 01-RD was used to measure the affinity reaction parameters of compounds with HTTexon1-Q72 and HTTexon1-Q25.

For O=C1Nc2ccc(I)cc2/C1=C/c1cc(Br)c(O)c(Br)c1 [compound 1, GW5074], the “binding to His-ATXN1-Q92” value (His-ATXN1-Q92) was “can bind”, the “mHTT selectivity relative to wtHTT” value (mHTT [1]; Hdh^Q140/Q7 mice, icv, 10 days) was “showed mHTT selectivity relative to wtHTT” and the “mHTT level in cortices” value (mHTT [1]; mouse, in vivo) was “significantly reduced mHTT level”. The Kd (Q46-GFP) was 60.2 nM, the Koff (Q46-GFP) was 0.000305 s⁻¹ and the Kon (Q46-GFP) was 0.000304 min/nM. The “wild-type ATXN3 protein level” value [2] was “no decrease in wild-type ATXN3 protein level was observed”, the mHTT levels (mHTT [3]; 2B7/MW1) was “Decreased mHTT levels were observed” and the mHTT levels (mHTT [3]; presence of the autophagy inhibitor NH4Cl) was “this effect was not observed”. The “mutant ATXN3 protein level” value [4] was “A decrease in mutant ATXN3 protein level was observed”, the Kd (MBP-ATXN3-Q68) was 6320 nM and the Kd (Q53-GFP) was 25 nM. The Koff (Q53-GFP) was 6.3e-05 s⁻¹, the Kon (Q53-GFP) was 0.000151 min/nM and the “level of proteins containing expanded polyglutamine in cells (polyQ-GFP)” value [5] was “can selectively reduce the level”. For the same compound, the “level of mutant ATXN1 protein (His-ATXN1-Q92)” value [6] was “Decreased levels of mutant ATXN1 were observed”, the “binding affinity to proteins with 38 or more glutamine repeats” value [7] was “showed certain binding affinity” and the “level of SQSTM1/p62 in the cortices” value (SQSTM1/p62) was “did not change”. For the same compound, the “binding to HTTexon1-Q25” value (HTTexon1-Q25-MBP) was “do not bind”.
